Data published in patent US9719982B2, “Devices comprising muscle thin films and uses thereof in high throughput assays for determining contractile function” (President and Fellows of Harvard College, priority 2009, dated 2017).
Positions of bridges follow the written chain, without caps; N, C: chain ends. No end group written: not given here.

Legend:
[1] = tested on: vascular smooth muscle cells; assay: Horizontal muscular thin film (hMTF) contractility assay with vascular smooth muscle cells; assay type: cell-based
Description: FIG. 12 contrasts the use of fluorescent microscopy and the use of brightfield stereo microscopy of vascular smooth muscle (VSM) horizontal MTFs during an assay of the invention as described in Example 5. The top row depicts fluorescent microscopy photographs of VSM horizontal MTFs comprising fluorescent beads embedded in the PDMS film. […] (A) Photographs taken 5 minutes after the start of the experiment, the films are slightly bent up from the glass due to the initial contraction of VSM. (B) Photographs taken 20 minutes after addition of the vasoconstrictor (Endothilin-1), which causes the VSM to contract and the films to bend up from the glass. […] Actuation and observation of multiple MTFs was carried out in a physiologic solution (e.g., normal Tyrodes solution). The horizontal […]) fabricated with vascular smooth muscle cells in the presence of fluorescent beads were treated with the endothelium-produced vasoconstrictor endothelin-1 (ET-1) followed by the rho-kinase inhibitor HA-1077. […] Quantification and analysis of thin film motion was performed using ImageJ (NIH) and MATLAB software. From the thresholded fluorescent images the length of the projection of the film on the horizontal plane was tracked throughout the contraction and the radius of curvature calculated. Using elasticity theory, the contraction stress necessary to induce the measured changes in curvature were calculated.

[2] = tested on: Human umbilical artery vascular smooth muscle; assay: Vascular muscular thin film (vMTF) contractility assay, films adhered to PTFE coated posts; assay type: cell-based
Description: Human umbilical artery vascular smooth muscle was seeded on thin films at 300 cells/mm^2 in complete M199 medium (M199 supplemented with 10% fetal bovine serum (FBS), penicillin, streptomycin, L-glutamine, glucose and vitamin B12). The tissue was cultured in complete M199 for 48 hours, with a single media change at 24 hours. After 48 hours, the cells were serum starved for an additional 48 hours (M199 supplemented with penicillin, streptomycin, L-glutamine, glucose and vitamin B12, but no FBS).
Muscle thin films were transferred to fresh Tyrode's solution in the testing dish (FIG. 1), which is maintained at 37° C. by a peltier heating system. Films were adhered to Teflon coated posts (FIG. 3) by moving them into close contact using tweezers. The films were imaged using a stereomicroscope outfitted with fluorescent imaging capability. Both brightfield and fluorescent images were captured every thirty seconds. In the experiment shown in FIG. 4, four films were treated with 50 nM endothelin-1 followed by 100 μM HA-1077 (fasudil).
Quantification and analysis of thin film motion was performed using ImageJ (NIH) and MATLAB software. Thresholded fluorescent images (FIG. 4 B) were fit to circles whose radii of curvature could be measured (FIG. 4C). Using elasticity theory, the contraction stress necessary to induce the measured changes in curvature were calculated (FIG. 4D).
Human umbilical artery VSMCs were engineered as anisotropic monolayers aligned parallel to the long axis of the MTF. The vMTFs were adhered to PTFE coated posts via hydrophobic interaction with the PDMS. This arrangement allowed multiple vMTFs to be viewed concurrently. Here, eight vMTFs were tested using this assay. The fluorosphere doped PDMS could be viewed using fluorescent stereomicroscopy. In this arrangement, the films are easily approximated as circular arcs.
The vMTFs were treated with the endothelium-produced vasoconstrictor endothelin-1 followed by the rho-kinase inhibitor HA-1077, in order to calculate all of the relevant stress states of arterial muscle. […] This value represents the resting tension of the tissue. […] The HA-1077 dosage is sufficient to inhibit all myosin light chain phosphorylation, so this value represents the residual stress, or the stress generated by the cytoskeletal elements not involved in the contractile apparatus, but which remains after all other loads are removed.

O=S(=O)(c1cccc2cnccc12)N1CCCNCC1 [HA-1077, fasudil]
change in radius of curvature of hMTFs ([1]; 100 mM HA-1077 following ET-1): rapid increase in radius of curvature | effect on VSM horizontal MTFs (FIG. 12C) ([1]; 30 minutes after addition of rho-kinase inhibitor, films lie flat on the glass): completely relax | change in radius of curvature of vMTFs ([2]; 100 μM HA-1077 following ET-1): rapid increase in radius of curvature | stress after inhibition of contraction (residual stress) ([2]; treatment with 100 μM HA-1077 following 50 nM ET-1): 3.1±0.8 kPa

endothelin-1 (CSCSSLMDKECVYFCHLDIIW; disulfide 1-15, 3-11; ends not checked; UniProt P05305 53-73, looked up) [ET-1, endothelium-produced vasoconstrictor]
change in radius of curvature of hMTFs ([1]; 50 nM ET-1 at time 0): decrease in their radii of curvature | effect on VSM horizontal MTFs (FIG. 12B) ([1]; 20 minutes after addition of the vasoconstrictor, films bend up from the glass): contract | change in radius of curvature of vMTFs ([2]; 50 nM ET-1): decrease in their radii of curvature | increase in cell generated stress ([2]; vMTFs stimulated with 50 nM ET-1 at time 0, basal stress 17.1±1.7 kPa): 5.06±0.75 kPa
